According to paper PMC3927474, “Whole body synthesis rates of DHA from α-linolenic acid are greater than brain DHA accretion and uptake rates in adult rats” (Journal of Lipid Research, 2014):

Experiments:
Test in all cases: Brain gene expression (TLDA qPCR)
Type in all cases: in vivo, rat
Details in all cases: 15 wk diet; control diet = 1
dopamine receptor D2 = system: dopamine receptor D2
Description: (§1) RNA was extracted from the flash-frozen half brains of the 15 week postweaning rats. The brain was briefly thawed and dissected to isolate the brainstem, cerebellum, cortex, hippocampus, striatum, and the rest of the brain. RNA was extracted from the brain regions using Trizol reagent (Ambion; Life Technologies, Burlington, ON, Canada) according to the manufacturer's protocol. […] Chloroform was added to the Trizol reagent at a ratio of 1:5 (chloroform:Trizol reagent) and the solution was mixed and incubated at room temperature. The solution was then centrifuged at 12,000 g for 15 min at 4°C. […] The samples were then centrifuged at 12,000 g for 10 min at 4°C to precipitate the RNA pellet. […] The pellet was allowed to air dry, and was then dissolved in RNase-free water. A Nanodrop 1000 (NanoDrop Technologies Inc., Wilmington, DE) was used to determine the concentration and purity of each sample by measuring absorbance at 260 and 280 nm. Each sample was aliquoted to make 1 μg of RNA per 10 μl of sample and stored at -80°C. A high-capacity cDNA reverse transcription kit (Applied Biosystems, Burlington, ON, Canada) was used to reverse transcribe 1 μg of RNA according to the manufacturer's instructions. Newly synthesized cDNA was stored at -20°C until the following day when it was loaded onto TaqMan low density array (TLDA) plates. Quantitative real-time PCR was performed using TLDA (Applied Biosystems) on the 7900HT real-time PCR system (Applied Biosystems). cDNA (50 ng) was diluted with water to make a volume of 50 μl and mixed with 50 μl of TaqMan Universal PCR Master Mix (Applied Biosystems). The mixture was then loaded onto a customized preconfigured 384-well TLDA plate according to the manufacturer's protocol. TaqMan gene expression assays were used to assess 21 genes that were previously reported to be differentially expressed with n-3 deprivation. […] All genes were normalized to phosphoglycerate kinase 1. Similar results were found when normalizing to β-actin or 18S rRNA.

β-actin = system: β-actin
Description: as §1

heme oxygenase 1 = system: heme oxygenase 1
Description: as §1

group 4 cPLA2 = system: group 4 cPLA2
Description: as §1

retnoid X receptor β = system: retnoid X receptor β
Description: as §1

uncoupling protein 2 = system: uncoupling protein 2
Description: as §1

PPARg = system: PPARg
Description: as §1

transthyretin = system: transthyretin
Description: as §1

[1] = system: prostaglandin E synthase 3
Description: as §1

COX-2 = system: COX-2
Description: as §1

retnoid X receptor α = system: retnoid X receptor α
Description: as §1

retinoic acid receptor α = system: retinoic acid receptor α
Description: as §1

α-synuclein = system: α-synuclein
Description: as §1

group 2a sPLA2 = system: group 2a sPLA2
Description: as §1

15-lipoxygenase = system: 15-lipoxygenase
Description: as §1

[2] = system: vesicular monoamine transporter 2
Description: as §1

TNF-α receptor member 1a = system: TNF-α receptor member 1a
Description: as §1

`CC/C=C\C/C=C\C/C=C\C/C=C\C/C=C\C/C=C\CCC(=O)O` [DHA, Docosahexaenoic acid] was tested, and the “Brainstem gene expression: DR D2” value (dopamine receptor D2) was 0.88 RQ, the “Cerebellum gene expression: DR D2” value (dopamine receptor D2) was 1.09 RQ and the “Cortex gene expression: DR D2” value (dopamine receptor D2) was 1.12 RQ. For the same molecule, the “Hippocampus gene expression: DR D2” value (dopamine receptor D2) was 0.95 RQ, the “Rest of brain gene expression: DR D2” value (dopamine receptor D2) was 1.05 RQ and the “Striatum gene expression: DR D2” value (dopamine receptor D2) was 0.98 RQ. The “Brainstem gene expression: b-actin” value (β-actin) was 1.10 RQ, the “Cerebellum gene expression: b actin” value (β-actin) was 0.98 RQ and the “Cortex gene expression: b actin” value (β-actin) was 1.05 RQ. The “Hippocampus gene expression: B-actin” value (β-actin) was 1.12 RQ, the “Rest of brain gene expression: b actin” value (β-actin) was 1.08 RQ and the “Striatum gene expression: b actin” value (β-actin) was 0.92 RQ. For the same molecule, the “Brainstem gene expression: HO1” value (heme oxygenase 1) was 0.99 RQ, the “Cerebellum gene expression: HO1” value (heme oxygenase 1) was 0.99 RQ and the “Cortex gene expression: HO1” value (heme oxygenase 1) was 1.11 RQ. The “Hippocampus gene expression: HO1” value (heme oxygenase 1) was 1.03 RQ, the “Rest of brain gene expression: HO1” value (heme oxygenase 1) was 1.04 RQ and the “Striatum gene expression: HO1” value (heme oxygenase 1) was 0.94 RQ. For the same molecule, the “Brainstem gene expression: cPLA2” value (group 4 cPLA2) was 6.22 RQ, the “Cerebellum gene expression: cPLA2” value (group 4 cPLA2) was 0.98 RQ and the “Cortex gene expression: cPLA2” value (group 4 cPLA2) was 1.11 RQ. For the same molecule, the “Hippocampus gene expression: cPLA2” value (group 4 cPLA2) was 0.98 RQ, the “Rest of brain gene expression: cPLA2” value (group 4 cPLA2) was 0.99 RQ and the “Striatum gene expression: cPLA2” value (group 4 cPLA2) was 0.92 RQ. For the same molecule, the “Brainstem gene expression: RXRb” value (retnoid X receptor β) was 1.29 RQ, the “Cerebellum gene expression: RXRb” value (retnoid X receptor β) was 0.96 RQ and the “Cortex gene expression: RXR b” value (retnoid X receptor β) was 1.05 RQ. The “Hippocampus gene expression: RXR b” value (retnoid X receptor β) was 1.07 RQ, the “Rest of brain gene expression: RXR b” value (retnoid X receptor β) was 1.12 RQ and the “Striatum gene expression: RXRb” value (retnoid X receptor β) was 1.02 RQ. For the same molecule, the “Brainstem gene expression: UCP2” value (uncoupling protein 2) was 1.08 RQ, the “Cerebellum gene expression: UCP2” value (uncoupling protein 2) was 0.87 RQ and the “Cortex gene expression: UCP2” value (uncoupling protein 2) was 1.02 RQ. For the same molecule, the “Hippocampus gene expression: UCP2” value (uncoupling protein 2) was 1.07 RQ, the “Rest of brain gene expression: UCP2” value (uncoupling protein 2) was 1.20 RQ and the “Striatum gene expression: UCP2” value (uncoupling protein 2) was 1.00 RQ. The “Brainstem gene expression: PPARg” value (PPARg) was 1.11 RQ, the “Cerebellum gene expression: PPARg” value (PPARg) was 1.07 RQ and the “Cortex gene expression: PPARg” value (PPARg) was 1.36 RQ. The “Hippocampus gene expression: PPARγ” value (PPARg) was 0.47 RQ, the “Rest of brain gene expression: PPARg” value (PPARg) was 1.14 RQ and the “Striatum gene expression: PPARg” value (PPARg) was 0.83 RQ. The “Brainstem gene expression: TTR” value (transthyretin) was 0.46 RQ, the “Cerebellum gene expression: TTR” value (transthyretin) was 0.72 RQ and the “Cortex gene expression: TTR” value (transthyretin) was 1.49 RQ. The “Hippocampus gene expression: TTR” value (transthyretin) was 2.40 RQ, the “Rest of brain gene expression: TTR” value (transthyretin) was 1.08 RQ and the “Striatum gene expression: TTR” value (transthyretin) was 0.66 RQ. For the same molecule, the “Brainstem gene expression: PGES3” value [1] was 1.10 RQ, the “Cerebellum gene expression: PGES3” value [1] was 0.97 RQ and the “Cortex gene expression: PGES3” value [1] was 1.07 RQ. The “Hippocampus gene expression: PGES3” value [1] was 1.11 RQ, the “Rest of brain gene expression: PGES3” value [1] was 1.14 RQ and the “Striatum gene expression: PGES3” value [1] was 0.92 RQ. For the same molecule, the “Brainstem gene expression: COX 2” value (COX-2) was 3.34 RQ, the “Cerebellum gene expression: COX 2” value (COX-2) was 1.41 RQ and the “Cortex gene expression: COX 2” value (COX-2) was 1.29 RQ. For the same molecule, the “Hippocampus gene expression: COX 2” value (COX-2) was 1.12 RQ, the “Rest of brain gene expression: COX 2” value (COX-2) was 1.21 RQ and the “Striatum gene expression: COX 2” value (COX-2) was 0.75 RQ. For the same molecule, the “Brainstem gene expression: RXRa” value (retnoid X receptor α) was 1.02 RQ, the “Cerebellum gene expression: RXRa” value (retnoid X receptor α) was 0.98 RQ and the “Cortex gene expression: RXR a” value (retnoid X receptor α) was 1.03 RQ. For the same molecule, the “Hippocampus gene expression: RXR a” value (retnoid X receptor α) was 1.10 RQ, the “Rest of brain gene expression: RXR a” value (retnoid X receptor α) was 1.17 RQ and the “Striatum gene expression: RXRa” value (retnoid X receptor α) was 1.02 RQ. For the same molecule, the “Brainstem gene expression: RARa” value (retinoic acid receptor α) was 1.52 RQ, the “Cerebellum gene expression: RARa” value (retinoic acid receptor α) was 1.08 RQ and the “Cortex gene expression: RAR a” value (retinoic acid receptor α) was 1.20 RQ. For the same molecule, the “Hippocampus gene expression: RAR a” value (retinoic acid receptor α) was 0.97 RQ, the “Rest of brain gene expression: RAR a” value (retinoic acid receptor α) was 1.09 RQ and the “Striatum gene expression: RARa” value (retinoic acid receptor α) was 0.93 RQ. The “Brainstem gene expression: SNCa” value (α-synuclein) was 2.25 RQ, the “Cerebellum gene expression: SNCa” value (α-synuclein) was 0.84 RQ and the “Cortex gene expression: SNCa” value (α-synuclein) was 1.15 RQ. For the same molecule, the “Hippocampus gene expression: SNCa” value (α-synuclein) was 1.19 RQ, the “Rest of brain gene expression: SNCa” value (α-synuclein) was 1.09 RQ and the “Striatum gene expression: SNCa” value (α-synuclein) was 0.97 RQ. For the same molecule, the “Brainstem gene expression: sPLA2” value (group 2a sPLA2) was 1.10 RQ, the “Cerebellum gene expression: sPLA2” value (group 2a sPLA2) was 0.98 RQ and the “Cortex gene expression: spla2” value (group 2a sPLA2) was 1.17 RQ. For the same molecule, the “Hippocampus gene expression: sPLA2” value (group 2a sPLA2) was 0.93 RQ, the “Rest of brain gene expression: sPLA2” value (group 2a sPLA2) was 1.17 RQ and the “Striatum gene expression: sPLA2” value (group 2a sPLA2) was 0.68 RQ. The “Brainstem gene expression: 15 LOX” value (15-lipoxygenase) was 1.68 RQ, the “Cerebellum gene expression: 15 LOX” value (15-lipoxygenase) was 1.35 RQ and the “Cortex gene expression: 15 LOX” value (15-lipoxygenase) was 1.04 RQ. The “Hippocampus gene expression: 15 LOX” value (15-lipoxygenase) was 0.96 RQ, the “Rest of brain gene expression: 15 LOX” value (15-lipoxygenase) was 1.07 RQ and the “Striatum gene expression: 15 LOX” value (15-lipoxygenase) was 1.46 RQ. For the same molecule, the “Brainstem gene expression: VMAT2” value [2] was 9.94 RQ, the “Hippocampus gene expression: VMAT 2” value [2] was 1.26 RQ and the “Rest of brain gene expression: VMAT2” value [2] was 1.08 RQ. The “Brainstem gene expression: TNFaR1a” value (TNF-α receptor member 1a) was 1.21 RQ, the “Cerebellum gene expression: TNFaR1a” value (TNF-α receptor member 1a) was 0.96 RQ and the “Cortex gene expression: TNFaR1a” value (TNF-α receptor member 1a) was 1.10 RQ. For the same molecule, the “Hippocampus gene expression: TNFa R 1a” value (TNF-α receptor member 1a) was 0.99 RQ, the “Rest of brain gene expression: TNFaR1a” value (TNF-α receptor member 1a) was 1.06 RQ and the “Striatum gene expression: TNFaR1a” value (TNF-α receptor member 1a) was 0.88 RQ.
